Measured values: the supplement of paper PMC10290057
Structures can show the parent of a compound that is named as a salt.

Test system: HCT116
Experiment: efficacy (fitted maximal change in viability relative to DMSO control); higher = less cytotoxic (negative = loss of viability)
Conditions: 48 h
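Note: Luminescence-based viability readout, five doses per compound, normalized against on-plate DMSO and empty-well controls, followed by dose-response curve fitting for every drug.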

First: CNC(=O)c1c(-c2ccc(F)cc2)oc2cc(N(CCO)[S+](C)(=O)[O-])c(C3CC3)cc12 [Nesbuvir]
Second: OC1=CC=C(C=C1)\C2=C(O)\C(=O)C3=C(O2)C=C(O)C=C3O [Kaempferol]
The efficacy of the first is lower: -8.31% for the first, 12.7% for the second.

Going from `O=C1NNc2nc(CN3Cc4ccccc4C3)nc3cccc1c23` [E-7449] to `C[N]1C=C(C2=C1C=CC=C2)\C3=C(\C(=O)NC3=O)C4=C5CC(CN)CC[N]5C6=C4C=CC=C6` (centres undefined) [Ro-31-8425], the efficacy falls from -29.7% to -33.7%.

Going from `CN(C)CCc1c[nH]c2ccc(C[S+](=O)([O-])N3CCCC3)cc12` [Almotriptan] to `CN1C(=O)C(Cc2c[nH]c3ccccc23)NC1=S` (centres undefined) [Necrostatin-1], the efficacy falls from -6.46% to -7.49%.

First: CCC(C)N1\N=C/N(C1=O)C2=CC=C(C=C2)N3CCN(CC3)C4=CC=C(OC[C@H]5CO[C@@](C[N]6C=NC=N6)(O5)C7=CC=C(Cl)C=C7Cl)C=C4 (some centres undefined) [Itraconazole]
Second: C=CC(=O)N1CCC[C@H](n2c(=O)n(-c3ccc(Oc4ccccc4)cc3)c3c(N)ncnc32)C1 [ONO-4059 analog]
The efficacy of the first is higher: -32.6% for the first, -67.4% for the second.

Compared with `CCOC(=O)C(C)OC1=CC=CC2=C1\C=C/N(CC(=O)NC3=CC=C4OCCOC4=C3)C2=O` (centres undefined), `COc1c(C)cc(NC(=O)c2nn(Cc3ccc(F)cc3)c3c2CN(C(=O)c2ccc[nH]2)C[C@]3(C)C(N)=O)cc1C` [GSK-864] is lower in efficacy: -19.6% for the first, -35.1% for the second.

Going from `Cc1n[nH]c2ncc(C(=O)N3CCC[C@H]3c3ccc(Cl)cc3)cc12` to `O=C(N[C@H]1CN2CCC1CC2)c1ccc(Cl)cc1`, the efficacy falls from -17.4% to -55.8%.

Compared with `COc1cc2ncnc(Nc3cccc(Cl)c3F)c2cc1OC(=O)N1CCN(C)C[C@H]1C` [AZD-3759], `COc1ccc(C(=O)N2CCN(c3ccc4c(c3)CCC(=O)N4)CC2)cc1OC` [Vesnarinone] is higher in efficacy: -38.2% for the first, -21.4% for the second.

First: CC(C)(Sc1ccc(CCN(CCCCC2CCCCC2)C(=O)NC2CCCCC2)cc1)C(=O)O [GW-7647]
Second: CCC1=C(C)CN(C(=O)NCCc2ccc(S(=O)(=O)NC(=O)N[C@H]3CC[C@H](C)CC3)cc2)C1=O [Glimepiride]
The efficacy of the first is lower: -45.1% for the first, -14.8% for the second.

Compared with `C/C(O)=C(\C#N)C(=O)Nc1cc(Br)ccc1Br` [LFM-A13], `C/C(O)=C(\C#N)C(=O)Nc1ccc(C(F)(F)F)cc1` [Teriflunomide] is lower in efficacy: -11.7% for the first, -52.2% for the second.

First: CN(C1=CC=CC=C1)C(=O)C/2=C(O)/C3=C(C=CC=C3)N(C)C2=O [Roquinimex]
Second: OC(=O)CNC(=O)\C1=C(/O)C2=CC=CC=C2N(CC3=CC=CC=C3)C1=O [IOX2]
The efficacy of the first is lower: -11.9% for the first, 9.68% for the second.

First: COc1ccc(/C=C/C(=O)Nc2ccccc2C(=O)O)cc1OC [Tranilast]
Second: O=C(c1ccccc1)c1ccc2n1CCC2C(=O)O (centres undefined) [Ketorolac]
The efficacy of the first is lower: -8.29% for the first, -7.25% for the second.

Compared with `CC(C)CC(N(C)C)C1(c2ccc(Cl)cc2)CCC1` (centres undefined) [Sibutramine hydrochloride], `CCC(C)(C)c1ccc(CC(C)CN2C[C@@H](C)O[C@@H](C)C2)cc1` (some centres undefined) [Amorolfine hydrochloride] is higher in efficacy: -45.3% for the first, -10% for the second.

Compared with `CN(C)[C@H]\1[C@@H]2[C@@H](O)[C@@H]\3C(=C)C4=C(C(=CC=C4)O)C(=O)C3=C(\O)[C@@]2(O)C(=O)\C(=C1O)C(N)=O` [Methacycline hydrochloride], `O=C(O)c1cc(O)c2c(c1)C(=O)c1cccc(O)c1C2=O` [Rhein] is lower in efficacy: -9.07% for the first, -14.9% for the second.

Compared with `C#CCN[C@@H]1CCc2ccccc21` [Rasagiline mesylate], `CC1=CC(=O)c2ccccc2C1=O` [Menadione] is lower in efficacy: -9.57% for the first, -10.7% for the second.

Compared with `N/C(=N\OCC(O)CN1CCCCC1)c1cccnc1` (centres undefined) [BGP-15], `Nc1nccc(-c2c(-c3ccc(F)cc3)ncn2C2CCCCC2)n1` is lower in efficacy: -14.5% for the first, -55.4% for the second.

Going from `N#Cc1c(N(CC(=O)[O-])CC(=O)[O-])sc(C(=O)[O-])c1CC(=O)[O-]` [Strontium Ranelate] to `O=C(O)CCNC(=O)c1ccc(/N=N/c2ccc(O)c(C(=O)O)c2)cc1` [Balsalazide disodium], the efficacy rises from -15.5% to -11.7%.

First: Cc1ccc(NC(=O)Nc2nnc(Sc3ncnc4cc(OCCCN5CCOCC5)ccc34)s2)cc1 [SKLB4771]
Second: Cc1cc(NC(=O)Nc2ccc(N(C)C)cc2)c2cc(F)cc(F)c2n1
The efficacy of the first is higher: -24.1% for the first, -37.6% for the second.

Compared with `CCN(CC)CCN1C(=O)\C(=N/C2=CC=CC=C12)CC3=CC=C(OC)C=C3` [Caroverine], `CCOCc1nc2c(N)nc3ccccc3c2n1CC(C)(C)O` [Resiquimod] is higher in efficacy: -15.9% for the first, -14.3% for the second.

Compared with `OC[C@H]1OC(O)C[C@@H](O)[C@@H]1O` (some centres undefined) [2-Deoxyglucose], `NC\1=N\C(=O)N(\C=C1)[C@@H]2O[C@H](CO)[C@@H](O)[C@H]2O` [Cytidine] is higher in efficacy: -11.9% for the first, -11.1% for the second.

Going from `CC(=O)O[C@H]1C(=O)[C@]2(C)[C@@H](O)C[C@H]3OC[C@@]3(OC(C)=O)C2[C@H](OC(=O)C4=CC=CC=C4)[C@]5(O)C[C@H](OC(=O)[C@H](O)[C@@H](NC(=O)C6=CC=CC=C6)C7=CC=CC=C7)\C(=C1/C5(C)C)C` (some centres undefined) [Paclitaxel] to `CO[C@H]1/C=C/O[C@@]2(C)Oc3c(C)c(O)c4c(O)c(c5c(nc6cc(C)ccn65)c4c3C2=O)NC(=O)/C(C)=C\C=C\[C@H](C)[C@H](O)[C@@H](C)[C@@H](O)[C@@H](C)[C@H](OC(C)=O)[C@@H]1C` [Rifaximin], the efficacy falls from -68.3% to -88.6%.

Compared with `CCNC(=O)CCC/C=C\C[C@@H]1[C@@H](/C=C/C(O)CCc2ccccc2)[C@@H](O)C[C@@H]1O` (some centres undefined) [Bimatoprost], `CC(C)C/1=C(NC2=C(C=N[N]2C1=O)C#N)\C3=CC=CC=C3` [CPI-455] is higher in efficacy: -24.4% for the first, -11.2% for the second.

Compared with `Nc1ncnc2c1nc(Cl)n2[C@@H]1O[C@H](CO)[C@@H](O)[C@H]1O` [8-Cl-Ado], `NC/1=N/C(=O)N(C[C@@H](CO)OC[P](O)(O)=O)/C=C1` [Cidofovir] is higher in efficacy: -73.3% for the first, 7.03% for the second.

Going from `C[S+](=O)([O-])N(Cc1ccco1)CC(O)Cn1c2ccccc2c2ccccc21` (centres undefined) [KL001] to `CC[C@H](NC1=C2[NH]C=NC2=NC=N1)/C3=C(/C(=O)C4=CC=CC=C4O3)C5=CC=CC(=C5)F` [Tenalisib], the efficacy falls from -21.8% to -39.1%.

Going from `CC/C(=C(/c1ccc(/C=C/C(=O)O)cc1)c1ccc2[nH]ncc2c1)c1ccc(F)cc1Cl` [Brilanestrant] to `COc1cc(NC(=O)c2ccc(-c3ccc(Cl)cc3)o2)cc(OC)c1`, the efficacy falls from -35.5% to -43.9%.

Compared with `O=C1NC(=O)/C(=C/c2ccc3c(c2)OC(F)(F)O3)S1`, `Nc1cccc2c1CN([C@H]1CCC(=O)NC1=O)C2=O` [Lenalidomide] is higher in efficacy: -22.5% for the first, -14% for the second.

Compared with `C[S+](=O)([O-])c1ccc(Oc2cc(F)cc(C#N)c2)c2c1[C@H](O)C(F)(F)C2` [PT-2385], `N#Cc1ccnc(N2C(=O)CC[C@H]2C(=O)N(c2cncc(F)c2)C(C(=O)NC2CC(F)(F)C2)c2ccccc2Cl)c1` (some centres undefined) [AG-120] is lower in efficacy: -10.6% for the first, -22.2% for the second.

Going from `OC1=CC=C2\C3=C(CNCC3)/C(=O)OC2=C1C4OCCCO4` [BI09] to `CC#C[C@]1(O)CC[C@H]2[C@@H]/3CCC/4=C/C(=O)CCC4=C3[C@H](C[C@]12C)C5=CC=C(C=C5)N(C)C` [Mifepristone], the efficacy falls from 9.24% to -73.4%.

First: C[C@]1(c2nc3c(C(N)=O)cccc3[nH]2)CCCN1 [Veliparib]
Second: CN[C@@H]1Cc2cccc3[nH]c(=O)n(c23)C1 [Sumanirole maleate]
The efficacy of the first is lower: -31.3% for the first, -12.4% for the second.

First: CN1CCN(C(=O)[C@H]2[C@@H](C(=O)O)[C@H]3CC[C@@H]2O3)CC1 [EMPM]
Second: Cc1nc2cc(C(=O)N3CCC4(CC3)CC(=O)c3c(cnn3C(C)C)C4)ccc2[nH]1
The efficacy of the first is higher: -12% for the first, -35.5% for the second.

Compared with `NCC/1=C/NC(=S)N1[C@H]2CCC3=C(F)C=C(F)C=C3C2` [Nepicastat hydrochloride], `CC(C)(C)C1=NC2=C([NH]1)C3=CC=C(F)C=C3C4=C2\C=C/NC4=O` [Pyridone 6] is higher in efficacy: -46.6% for the first, -28.4% for the second.

Compared with `CC[C@H](NC(=O)[C@H](C)NC)C(=O)N1C[C@@H](O)C[C@H]1Cc1c(-c2[nH]c3cc(F)ccc3c2C[C@@H]2C[C@H](O)CN2C(=O)[C@H](CC)NC(=O)[C@H](C)NC)[nH]c2cc(F)ccc12` [Birinapant], `CC[C@H](NC(=O)[C@H](C[S+](=O)([O-])CC1CC1)N[C@@H](c1ccc(F)cc1)C(F)(F)F)C(=O)C(=O)NC1CC1` [VBY-825] is higher in efficacy: -49.9% for the first, -25.3% for the second.

First: Cc1cn[nH]c1 [Fomepizole]
Second: Cc1cnc(C(=O)O)c[n+]1[O-] [Acipimox]
The efficacy of the first is lower: -18.8% for the first, -8.25% for the second.

First: COc1cc(OC)c(NC(=O)Nc2cc(C)on2)cc1Cl
Second: O=C(Nc1c(Cl)cncc1Cl)c1ccc(OC(F)F)c(OCC2CC2)c1 [Roflumilast]
The efficacy of the first is higher: -7.13% for the first, -20.6% for the second.

Compared with `Cn1c(=O)c2[nH]cnc2n(C)c1=O` [Theophyllamine], `CC1COC2(CCN(CC2)C/3=N/C(=O)C4=CC(=CC(=C4S3)[N+]([O-])=O)C(F)(F)F)O1` (centres undefined) is lower in efficacy: -11.6% for the first, -19.7% for the second.

Going from `CO[C@H]1O[C@@H]2O[C@@]3(C)CC[C@H]4[C@H](C)CC[C@@H]([C@H]1C)[C@@]24OO3` [Artemether] to `C[C@]12CCC3[C@@H](CC[C@H]4NC(=O)\C=C/[C@]34C)[C@@H]1CC[C@@H]2C(=O)NC5=CC(=CC=C5C(F)(F)F)C(F)(F)F` (some centres undefined) [Dutasteride], the efficacy falls from -12.5% to -20%.

First: CC(=O)NCCC(=O)N[C@@H](CCC(N)=O)C(=O)N[C@@H](CO)C(=O)N[C@@H](CCC(N)=O)C(=O)N[C@@H](CCC(N)=O)C(=O)N[C@H](C(=O)N[C@@H](Cc1ccccc1)C(=O)N[C@]1(C)CCCCCC/C=C\CCC[C@@](C)(C(=O)N[C@@H](CCC(N)=O)C(=O)N[C@@H](CC(N)=O)C(N)=O)NC(=O)[C@H](CC(C)C)NC(=O)[C@H](CC(C)C)NC(=O)[C@@H](CCCNC(=N)N)NC(=O)[C@H](Cc2c[nH]c3ccccc23)NC(=O)[C@H](CC(C)C)NC(=O)[C@H](CC(N)=O)NC1=O)[C@H](C)O [Ac-SAH-p53-8]
Second: Cc1c(-c2c(-c3ccc(F)o3)sc3ncnc(O[C@@H](Cc4ccccc4OCc4ccnn4CC(F)(F)F)C(=O)O)c23)ccc(OCCN2CCN(C)CC2)c1Cl
The efficacy of the first is lower: -6.69% for the first, 9.5% for the second.

Going from `OC1=CC=C(C=C1)\C2=C\OC3=C(C(=CC(=C3)O)O)C2=O` [Genistein] to `CN(C)c1nc(N(C)C)nc(N(C)C)n1` [Altretamine], the efficacy rises from -33.2% to -12.2%.
